From patent US20250352679A1, “IN-SITU STE[…] VAPOR PHASE DEPOSITION” (Applied Materials, Inc., priority 2024, published 2025)

Tested on: bioburden of powdered lactose
Test: Bioburden testing (US Pharmacopeia 61, colony count) of lactose powder after ozone sterilization in the reactor chamber
Format: cell-based
Conditions: 50 g lactose powder, 5 hrs, 35° C., 10 rpm, 0 ppm control 1800 CFU/ml
Description: (§1) Briefly, 50 grams of lactose powder was loaded into the reactor chamber. The chamber was evacuated to reach a pressure of 0.008 Torr and then 0.01 Torr. Then the chamber was filled with ozone at 25 sccm to 2 ppm, 10 ppm or 20 ppm. The ozone was kept in the chamber for 5 hrs. The reaction was held at 35° C. and the reactor chamber was rotated at 10 rpm. At the end of the 5 hour incubation time, the chamber was evacuated to reach a pressure of 0.01 Torr and purged with nitrogen. The lactose was then tested using US Pharmacopeia 61 testing. Briefly, the samples were incubated in petri-dishes and counted for colony forming units (cfu).
as §1, with “ppm. Water vapor was also added at an ozone/water ratio of 1:10.” for “ppm.”, “test” for “tested”, “testing.” for “testing. Briefly, the samples were incubated in petri-dishes and counted for colony forming units (cfu).”

O=[O+][O-] [Dry ozone, ozone]
Bioburden (ozone concentration 2 ppm): 500 CFU/ml | Bioburden (ozone concentration 10 ppm): 50 CFU/ml | Bioburden (ozone concentration 20 ppm): <1 CFU/ml
